#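 Exposure lasted 48 hours, with cells grown in 96-well plates and compounds tested at five concentrations. The concentration for 50% growth inhibition is given as GI50.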 Calls of active or inactive are those of the source. Rule as the data show it: active = GI50 up to about 1.1 µM and inactive = higher.
# Legend:
# Test in all cases: NCI anticancer screen, dose series, 48 h
# HOP-92 = test system: HOP-92
# Malme-3M = test system: Malme-3M
# M14 = test system: M14
# SR = test system: SR
# PC-3 = test system: PC-3
# ACHN = test system: ACHN
# SK-MEL-28 = test system: SK-MEL-28
# 786-0 = test system: 786-0
# CCRF-CEM = test system: CCRF-CEM
# T47D = test system: T47D
# SK-OV-3 = test system: SK-OV-3
# HT-29 = test system: HT-29
# HOP-62 = test system: HOP-62
# CAKI-1 = test system: CAKI-1
# HCT-116 = test system: HCT-116
# MDA-MB-231 = test system: MDA-MB-231
# SF-268 = test system: SF-268
# SK-MEL-5 = test system: SK-MEL-5
# MDA-N = test system: MDA-N
# HL-60 = test system: HL-60
SMILES,GI50 (HOP-92),GI50 (Malme-3M),GI50 (M14),GI50 (SR),GI50 (PC-3),GI50 (ACHN),GI50 (SK-MEL-28),GI50 (786-0),GI50 (CCRF-CEM),GI50 (T47D),GI50 (SK-OV-3),GI50 (HT-29),GI50 (HOP-62),GI50 (CAKI-1),GI50 (HCT-116),GI50 (MDA-MB-231),GI50 (SF-268),GI50 (SK-MEL-5),GI50 (MDA-N),GI50 (HL-60)
CC(Cc1ccc(O)cc1)NCC(O)c1ccc(O)c(O)c1 (centres undefined),> 100 µM (inactive),> 100 µM (inactive),> 100 µM (inactive),88.3 µM (inactive),> 100 µM (inactive),> 100 µM (inactive),> 100 µM (inactive),> 100 µM (inactive),> 100 µM (inactive),> 100 µM (inactive),> 100 µM (inactive),> 100 µM (inactive),> 100 µM (inactive),> 100 µM (inactive),> 100 µM (inactive),3.35 µM (inactive),> 100 µM (inactive),> 100 µM (inactive),,
CCC(C(=O)C(=O)OC)P1(=O)OC(C)(C)CN1C(C)(C)C (centres undefined),,> 100 µM (inactive),> 100 µM (inactive),> 100 µM (inactive),> 100 µM (inactive),> 100 µM (inactive),11.9 µM (inactive),> 100 µM (inactive),,> 100 µM (inactive),> 100 µM (inactive),> 100 µM (inactive),> 100 µM (inactive),> 100 µM (inactive),> 100 µM (inactive),> 100 µM (inactive),> 100 µM (inactive),> 100 µM (inactive),,
O=[N+]([O-])c1cccnc1NCC1(CO)CCCC1,23.4 µM (inactive),20.7 µM (inactive),,25.4 µM (inactive),19.1 µM (inactive),27 µM (inactive),23.2 µM (inactive),26.7 µM (inactive),29.4 µM (inactive),,,19.3 µM (inactive),33 µM (inactive),,26 µM (inactive),,32.2 µM (inactive),17.1 µM (inactive),21.4 µM (inactive),22.4 µM (inactive)
Cc1ccc(OCCn2cc(Nc3ccccc3)c(=O)n(CCOc3ccc(C)cc3)c2=O)cc1,44.5 µM (inactive),80 µM (inactive),> 100 µM (inactive),,93.5 µM (inactive),> 100 µM (inactive),> 100 µM (inactive),48 µM (inactive),> 100 µM (inactive),> 100 µM (inactive),,51.1 µM (inactive),,> 100 µM (inactive),> 100 µM (inactive),69.5 µM (inactive),35.6 µM (inactive),> 100 µM (inactive),> 100 µM (inactive),
COc1cc(CNc2nc3cc(C(F)(F)F)ccc3nc2C)cc(OC)c1OC,,17.5 µM (inactive),12.4 µM (inactive),14.5 µM (inactive),,13.6 µM (inactive),20.4 µM (inactive),> 10 µM (inactive),20.3 µM (inactive),17.9 µM (inactive),,17.2 µM (inactive),24.3 µM (inactive),24.7 µM (inactive),19.3 µM (inactive),14.5 µM (inactive),25.6 µM (inactive),19.7 µM (inactive),15.8 µM (inactive),16.5 µM (inactive)
CN1NC2(CCCCC2)ON=C1c1ccccc1,> 100 µM (inactive),> 100 µM (inactive),> 100 µM (inactive),> 100 µM (inactive),,> 100 µM (inactive),> 100 µM (inactive),> 100 µM (inactive),> 100 µM (inactive),,> 100 µM (inactive),> 100 µM (inactive),> 100 µM (inactive),> 100 µM (inactive),> 100 µM (inactive),,> 100 µM (inactive),> 100 µM (inactive),,> 100 µM (inactive)
O=C(NC(CCCCN1C(=O)c2ccccc2C1=O)P(=O)(Oc1ccccc1)Oc1ccccc1)OCc1ccccc1 (centres undefined),> 100 µM (inactive),> 100 µM (inactive),> 100 µM (inactive),> 100 µM (inactive),> 100 µM (inactive),> 100 µM (inactive),> 100 µM (inactive),> 100 µM (inactive),,> 100 µM (inactive),> 100 µM (inactive),> 100 µM (inactive),71.8 µM (inactive),> 100 µM (inactive),,,> 100 µM (inactive),> 100 µM (inactive),> 100 µM (inactive),
Cc1cc2c3c(nc4ccccc42)C(=O)c2ccccc2-c3n1,19.3 µM (inactive),,4.44 µM (inactive),1.79 µM (inactive),0.851 µM (active),12.2 µM (inactive),14.6 µM (inactive),25.5 µM (inactive),5.16 µM (inactive),12.7 µM (inactive),14.8 µM (inactive),21.7 µM (inactive),6.18 µM (inactive),12.3 µM (inactive),8.59 µM (inactive),18 µM (inactive),30.6 µM (inactive),0.569 µM (active),,
CC(C)(C)Nc1noc(=O)n1C(C)(C)C,> 100 µM (inactive),> 100 µM (inactive),> 100 µM (inactive),> 100 µM (inactive),> 100 µM (inactive),> 100 µM (inactive),> 100 µM (inactive),> 100 µM (inactive),> 100 µM (inactive),,> 100 µM (inactive),> 100 µM (inactive),> 100 µM (inactive),> 100 µM (inactive),> 100 µM (inactive),> 100 µM (inactive),> 100 µM (inactive),> 100 µM (inactive),> 100 µM (inactive),> 100 µM (inactive)
O=c1[nH]nc(Cc2ccc([N+](=O)[O-])cc2)[nH]1,,> 100 µM (inactive),> 100 µM (inactive),> 100 µM (inactive),> 100 µM (inactive),> 100 µM (inactive),> 100 µM (inactive),> 100 µM (inactive),> 100 µM (inactive),> 100 µM (inactive),,> 100 µM (inactive),> 100 µM (inactive),> 100 µM (inactive),> 100 µM (inactive),,> 100 µM (inactive),> 100 µM (inactive),> 100 µM (inactive),> 100 µM (inactive)
C=C(C)[C@H]1C=C[C@@H](OC(C)=O)[C@@]2(COC(C)=O)[C@H](OC(=O)CCC)[C@H]3[C@@H](OC(C)=O)[C@@H](C)C[C@]3(O)C(=O)[C@@](C)(OC(C)=O)[C@H]12,3.53 µM (inactive),45.3 µM (inactive),31.8 µM (inactive),36.3 µM (inactive),31.6 µM (inactive),34.2 µM (inactive),80 µM (inactive),39.7 µM (inactive),42.4 µM (inactive),27 µM (inactive),,38.7 µM (inactive),,> 100 µM (inactive),37.6 µM (inactive),56.9 µM (inactive),67 µM (inactive),34.7 µM (inactive),,33.5 µM (inactive)
O=C1[C@H](O)[C@@H]2C(O)O[C@H]3[C@@H]2N1C[C@H]3[Si](c1ccccc1)(c1ccccc1)c1ccccc1 (some centres undefined),,,> 100 µM (inactive),> 100 µM (inactive),> 100 µM (inactive),> 100 µM (inactive),> 100 µM (inactive),> 100 µM (inactive),,29.1 µM (inactive),> 100 µM (inactive),> 100 µM (inactive),> 100 µM (inactive),> 100 µM (inactive),> 100 µM (inactive),> 100 µM (inactive),> 100 µM (inactive),> 100 µM (inactive),,
